From patent US8802704B2, “Oxadiazole derivatives” (Merck Serono SA, priority 2009, dated 2014)
Read-outs that look alike come from different tables or passages of the source.

Legend:
S1P1 [1] = target: T1, S1P1 (Homo sapiens, UniProt P21453); experiment: Receptor binding assay, [33P]sphingosine 1-phosphate competition (SPA), S1P1
Method: Cells were suspended in 50 mM TRIS, pH 7.4, 2 mM EDTA, 250 mM Sucrose (buffer A) and 1× Complete protease inhibitor cocktail (Roche), and disrupted at 4° C. by N2 decompression using a cell disruption bomb (Parr Instrument). […] The pellet was then suspended in 10 mM HEPES, pH 7.4, 1 mM EDTA, 250 mM Sucrose (Buffer B), and 1× Complete EDTA-free protease inhibitor cocktail and homogenized using a potter. Membranes were flash frozen in liquid N2 and stored at −80° C.
[33P]sphingosine 1-phosphate (3000 Ci/mmol; American Radiolabeled Chemicals, Inc.) was added to test compounds in 20% DMSO by competition. […] Triplicate samples were averaged and normalized as percentage of inhibition relative to total binding (only DMSO in well) and non-specific binding (1000-fold excess of unlabeled S1P). Binding data were analyzed using the GraphPad Prism program or Genedata software.
Target sequence in this assay (P21453 whole entry, species assumed): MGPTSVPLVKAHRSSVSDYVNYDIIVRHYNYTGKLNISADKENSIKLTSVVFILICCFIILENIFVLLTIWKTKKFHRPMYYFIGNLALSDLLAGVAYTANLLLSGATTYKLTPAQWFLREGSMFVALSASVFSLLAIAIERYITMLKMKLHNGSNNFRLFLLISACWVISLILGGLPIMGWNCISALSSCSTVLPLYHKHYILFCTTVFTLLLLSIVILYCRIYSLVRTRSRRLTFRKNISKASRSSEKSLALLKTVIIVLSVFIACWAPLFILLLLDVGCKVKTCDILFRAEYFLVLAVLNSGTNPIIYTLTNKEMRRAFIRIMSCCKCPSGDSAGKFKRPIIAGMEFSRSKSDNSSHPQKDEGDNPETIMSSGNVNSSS

S1P3 = S1P3 (Homo sapiens, UniProt Q99500); experiment: Receptor binding assay, [33P]sphingosine 1-phosphate competition (SPA), S1P3
Method: Membranes were prepared from CHO cells expressing S1P1 or S1P3 for use in ligand and […] binding studies. Cells were suspended in 50 mM TRIS, pH 7.4, 2 mM EDTA, 250 mM Sucrose (buffer A) and 1× Complete protease inhibitor cocktail (Roche), and disrupted at 4° C. by N2 decompression using a cell disruption bomb (Parr Instrument). Following centrifugation at 1000 RPM for 10 min at 4° C., the supernatant was diluted (2×) in buffer A and centrifuged again at 19000 RPM for 75 min at 4° C. The pellet was then suspended in 10 mM HEPES, pH 7.4, 1 mM EDTA, 250 mM Sucrose (Buffer B), and 1× Complete EDTA-free protease inhibitor cocktail and homogenized using a potter. Membranes were flash frozen in liquid N2 and stored at −80° C.
[33P]sphingosine 1-phosphate (3000 Ci/mmol; American Radiolabeled Chemicals, Inc.) was added to test compounds in 20% DMSO by competition. Membranes and WGA SPA beads (GE Healthcare) were added to give a final volume of 100 μl in 96-well plates or 50 μl in 384-well plates with assay concentrations of 30 pM or 15 pM [33P]sphingosine 1-phosphate (respectively for S1P1 or S1P3), 50 mM HEPES, pH 7.5, 5 mM MgCl2, 100 mM NaCl, 0.4% fatty acid-free BSA, 1-5 μg/well of proteins in 96-well plates vs 0.6-1 μg/well of proteins in 384-well plates and 100 μg/well of WGA SPA beads in 96-well plates vs 75 μg/well of WGA SPA beads in 384-well plates. Binding was performed for 60 min at RT on a shaker and bound radioactivity was measured on a PerkinElmer 1450 MicroBeta counter. Triplicate samples were averaged and normalized as percentage of inhibition relative to total binding (only DMSO in well) and non-specific binding (1000-fold excess of unlabeled S1P). Binding data were analyzed using the GraphPad Prism program or Genedata software.

S1P1 [2] = target: T1, S1P1; experiment: S1P1 internalization assay in S1P1-U2OS cells (cell imaging); assay type: cell-based; details: U2OS cells expressing S1P1-EGFP, 1 hour
Method: Cellular functional assays: Internalization of Sphingosine-1-phosphate receptor 1 (S1P1) in a human Cell line (U2OS) in a 384-well format using a Cell Imaging analysis.
The S1P1 internalization assay was performed in 384 well plates (Corning® 384 black with clear bottom 3712) using S1P1-U2OS cells from Biolmage (C039A), a human epithelial cell line (Human Bone Osteosarcoma Epithelial Cells). These cells expressed the human S1P1 Receptor fused to the green fluorescent protein (EGFP). A standard CMV promoter (cytomegalovirus promoter) controls the expression of S1P1-EGFP and continuous expression was maintained by addition of geneticin to the culture medium.
S1P1Receptor desensitization induced the internalization of the membrane-localized S1P1-EGFP fusion protein to endosomes, which can be monitored by cell imaging analysis. The cells are plated in low serum medium (Dulbecco's Modified Eagle Medium (DMEM) with Glutamax-1 and high glucose, 1% Penicillin/Streptomycin, 1% Fetal Calf Serum (FCS), 0.5 mg/ml Geneticin) overnight.
The next day, S1P1-U2OS cells are incubated in 20 μl serum free medium (DMEM with Glutamax-1 and high glucose, 0.1% of fatty-acid free Bovin Serum Albumin (BSA), 10 mM, N′-2-Hydroxyethylpiperazine-N′-2 ethanesulphonic acid (HEPES) 1M) for 2 hours at 37° C./5% CO2. The cells are then treated with 4 μl compounds/agonists (6×/3% DMSO) for a total volume of 24 μl, and plates are incubated for 1 hour at 37° C./5% CO2.
S1P1-U2OS cells are fixed with 25 μl Paraformaldehyde 8% and stained with Hoechst 33345 dye (1:1000) for 20 minutes.
They were then washed 3 times with Phosphate Buffered Saline (PBS) and plates are sealed. The internalization of the receptor S1P1-EGFP is measured on Cellomics by calculating the “spot count per object” (“object” corresponds to nuclear and “spot” corresponds to S1P1-EGFP receptor). Internalization data were observed thanks to vHCS View and analyzed using Genedata® software.
Target sequence in this assay (P21453 whole entry): as the sequence (P21453 whole entry, species assumed) above

[3] = 96 well-plate, read-out: S1P1 binding Ki (M) (96 well-plate)
[4] = 384 well-plate, read-out: S1P1 binding Ki (M) (384 well-plate)
[5] = 96 well-plate, read-out: S1P3 binding Ki (M) (96 well-plate)
[6] = 384 well-plate, read-out: S1P3 binding Ki (M) (384 well-plate)

S1P3, sequence (Q99500 whole entry, species assumed): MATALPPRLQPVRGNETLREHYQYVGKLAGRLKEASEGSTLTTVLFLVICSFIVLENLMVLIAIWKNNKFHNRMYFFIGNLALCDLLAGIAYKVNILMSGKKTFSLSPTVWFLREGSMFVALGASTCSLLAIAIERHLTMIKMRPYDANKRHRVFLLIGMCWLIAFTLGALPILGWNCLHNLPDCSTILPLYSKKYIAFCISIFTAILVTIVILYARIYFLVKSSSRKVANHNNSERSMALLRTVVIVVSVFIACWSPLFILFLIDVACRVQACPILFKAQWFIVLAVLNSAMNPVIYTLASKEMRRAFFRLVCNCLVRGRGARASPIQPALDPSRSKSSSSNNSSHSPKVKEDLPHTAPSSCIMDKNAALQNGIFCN

SMILES	Ki (S1P1 [1]; [3]) [M]	Ki (S1P1 [1]; [4]) [M]	Ki (S1P3; [5]) [M]	Ki (S1P3; [6]) [M]	EC50 (S1P1 [2]) [nM]
CN(CC(=O)O)Cc1ccc(-c2noc(-c3ccc(-c4ccccc4F)c(C(F)(F)F)c3)n2)cc1 [Example 89, N-(4-{5-[2′-fluoro-2-(trifluoromethyl)biphenyl-4-yl]-1,2,4-oxadiazol-3-yl}benzyl)-N-methylglycine]	3.49e-10	1.19e-09	6.29e-07	5.69e-07	6.53
COCc1cc(-c2nc(-c3ccc(CN(C)CC(=O)O)cc3)no2)ccc1-c1ccccc1C(F)(F)F [Example 97, N-(4-{5-[2-(methoxymethyl)-2′-(trifluoromethyl)biphenyl-4-yl]-1,2,4-oxadiazol-3-yl}benzyl)-N-methylglycine]		2.08e-09	1.57e-06	2.22e-06	12
COCc1cc(-c2nc(-c3ccc(CN(C)CC(=O)O)c(C(F)(F)F)c3)no2)ccc1-c1ccccc1C [Example 105]		3.3e-09	1.83e-06	1.88e-06	74.9
Cc1ccccc1-c1ccc(-c2nc(-c3cccc(CN(C)CC(=O)O)c3F)no2)cc1C(F)(F)F [Example 112, N-(2-fluoro-3-{5-[2′-methyl-2-(trifluoromethyl)biphenyl-4-yl]-1,2,4-oxadiazol-3-yl}benzyl)-N-methylglycine]		4.95e-10	1.49e-07	1.92e-07	6.26
Cc1ccccc1-c1ccc(-c2nc(-c3ccc(CN(CC(=O)O)C(C)C)cc3)no2)cc1C(F)(F)F [Example 113, (Isopropyl-{4-[5-(2′-methyl-2-trifluoromethyl-biphenyl-4-yl)-[1,2,4]oxadiazol-3-yl]-benzyl}-amino)-acetic acid]		2.9e-09	2.17e-06	2.7e-06	24.8
CCOc1cc(-c2nc(-c3ccc(CN(C)CC(=O)O)cc3)no2)ccc1-c1ccccc1C(F)(F)F [Example 115, N-(4-{5-[2-ethoxy-2′-(trifluoromethyl)biphenyl-4-yl]-1,2,4-oxadiazol-3-yl}benzyl)-N-methylglycine]		2.15e-09	6.68e-07	2.21e-06	9.03
Cc1ccccc1-c1ccc(-c2nc(-c3ccc(CN(C)CCCC(=O)O)cc3)no2)cc1C(F)(F)F [Example 116, 4-[methyl(4-{5-[2′-methyl-2-(trifluoromethyl)biphenyl-4-yl]-1,2,4-oxadiazol-3-yl}benzyl)amino]butanoic acid]		1.33e-09	3.33e-07	1.31e-06	3.65
Cc1cc(-c2nc(-c3ccc(CN(C)CC(=O)O)c(F)c3)no2)ccc1-c1ccccc1C(F)(F)F [Example 123, N-(2-fluoro-4-{5-[2-methyl-2′-(trifluoromethyl)biphenyl-4-yl]-1,2,4-oxadiazol-3-yl}benzyl)-N-methylglycine]		3.46e-09		6.9e-06	30.4

Continued, values first:

Ki (S1P1 [1]; [3]) [M]	Ki (S1P1 [1]; [4]) [M]	Ki (S1P3; [5]) [M]	Ki (S1P3; [6]) [M]	EC50 (S1P1 [2]) [nM]	SMILES
4.26e-10	3.67e-09	6.5e-07	1.03e-06	13.9	COCc1cc(-c2nc(-c3ccc(CN(C)CC(=O)O)c(F)c3)no2)ccc1-c1ccccc1C(F)(F)F [Example 95, N-(2-fluoro-4-{5-[2-(methoxymethyl)-2′-(trifluoromethyl)biphenyl-4-yl]-1,2,4-oxadiazol-3-yl}benzyl)-N-methylglycine]
1.04e-09	3.49e-09	9.43e-06	9.67e-06	56.1	Cc1cc(-c2nc(-c3ccc(CN(C)CC(=O)O)cc3)no2)ccc1-c1ccccc1C(F)(F)F [Example 100, N-methyl-N-(4-{5-[2-methyl-2′-(trifluoromethyl)biphenyl-4-yl]-1,2,4-oxadiazol-3-yl}benzyl)glycine]
	5.63e-09	9.43e-06	6.59e-06	69.3	Cc1cc(-c2nc(-c3cccc(CN(C)CC(=O)O)c3)no2)ccc1-c1ccccc1C(F)(F)F [Example 101, N-methyl-N-(3-{5-[2-methyl-2′-(trifluoromethyl)biphenyl-4-yl]-1,2,4-oxadiazol-3-yl}benzyl)glycine]
	1.45e-09	4.12e-07	4.68e-07	17.7	Cc1cc(CN(C)CC(=O)O)ccc1-c1noc(-c2ccc(-c3ccccc3C)c(C(F)(F)F)c2)n1 [Example 103, 2-(methyl(3-methyl-4-(5-(2′-methyl-2-(trifluoromethyl)biphenyl-4-yl)-1,2,4-oxadiazol-3-yl)benzyl)amino)acetic acid]
	8.98e-09		2.14e-06	15	Cc1cc(-c2nc(-c3cc(F)cc(CN(C)CC(=O)O)c3)no2)ccc1-c1ccccc1C(F)(F)F [Example 104, N-(3-fluoro-5-{5-[2-methyl-2′-(trifluoromethyl)biphenyl-4-yl]-1,2,4-oxadiazol-3-yl}benzyl)-N-methylglycine]
	1.5e-09		2.93e-07	11.9	CCc1ccccc1-c1ccc(-c2nc(-c3ccc(CN(C)CC(=O)O)cc3)no2)cc1C(F)(F)F [Example 109, N-(4-{5-[2′-ethyl-2-(trifluoromethyl)biphenyl-4-yl]-1,2,4-oxadiazol-3-yl}benzyl)-N-methylglycine]
	1.91e-09	1.09e-06	9.14e-07	15.6	COCc1cc(-c2nc(-c3cccc(CN(C)CC(=O)O)c3F)no2)ccc1-c1ccccc1C(F)(F)F [Example 114, N-(2-fluoro-3-{5-[2-(methoxymethyl)-2′-(trifluoromethyl)biphenyl-4-yl]-1,2,4-oxadiazol-3-yl}benzyl)-N-methylglycine]
	5.33e-09		9.76e-07	23.3	Cc1ccccc1-c1ccc(-c2nc(-c3ccc(CN(C)CC(=O)O)c(Cl)c3)no2)cc1C(F)(F)F [Example 129, 2-((4-(5-(2-(trifluoromethyl)-2′-methylbiphenyl-4-yl)-1,2,4-oxadiazol-3-yl)-2-chlorobenzyl)(methyl)amino)acetic acid]
	4.07e-09		1.8e-05	37.3	CN(CC(=O)O)Cc1ccc(-c2noc(-c3ccc(-c4ccccc4C(F)(F)F)c(Cl)c3)n2)cc1F [Example 134, N-(4-{5-[2-chloro-2′-(trifluoromethyl)biphenyl-4-yl]-1,2,4-oxadiazol-3-yl}-2-fluorobenzyl)-N-methylglycine]
	4.27e-09		2.32e-06	40.9	CN(CC(=O)O)Cc1cc(F)cc(-c2noc(-c3ccc(-c4ccccc4C(F)(F)F)c(Cl)c3)n2)c1 [Example 136, N-(3-{5-[2-chloro-2′-(trifluoromethyl)biphenyl-4-yl]-1,2,4-oxadiazol-3-yl}-5-fluorobenzyl)-N-methylglycine]
